Patent publication US6426369B1, “Oxethazaine as antimicrobial agent” (Eisai Co., Ltd., priority 1997, dated 2002)

System: H. pylori
Assay: Antimicrobial activity test 6: oxethazaine in combination with an antibiotic (AMPC, CAM, RXM), checker board method
Type: cell-based, Helicobacter pylori
Design: key to growth of H. pylori: “−” indicates the inhibited growth of H. pylori (presence of antimicrobial activity); “+” indicates the growth of H. pylori (absence of antimicrobial activity)
Conditions: for growth of H. pylori: oxethazaine μg/ml: 100, 50, 25, 12.5, 6.25, 3.13, 0
Source text: The effect of combined use with amoxicillin (AMPC), clarithromycin (CAM) or roxithromycin (RXM) was examined in the same manner as in antimicrobial activity test 1, using the checker board method.

[1] = combined use with oxethazaine, out of 15 strains (AMPC), 21 strains (CAM), 22 strains (RXM)

CC[C@H]1OC(=O)[C@H](C)[C@@H](O[C@H]2C[C@@](C)(OC)[C@@H](O)[C@H](C)O2)[C@H](C)[C@@H](O[C@@H]2O[C@H](C)C[C@H](N(C)C)[C@H]2O)[C@](C)(O)C[C@@H](C)/C(=N\OCOCCOC)[C@H](C)[C@@H](O)[C@]1(C)O [roxithromycin]
additive effect, number of strains [1]: 19 strains/
synergism, number of strains [1]: 4 strains/
growth of H. pylori (strain EH 12, RXM 0.05 μg/ml): +
growth of H. pylori (strain EH 12, RXM 0.1 μg/ml): +
growth of H. pylori (strain EH 12, RXM 0.2 μg/ml): −
growth of H. pylori (strain EH 12, RXM 0.4 μg/ml): −
growth of H. pylori (strain EH 12, RXM 0.8 μg/ml): −
growth of H. pylori (strain EH 12, RXM 1.56 μg/ml): −
growth of H. pylori (strain EH 12, RXM 3.13 μg/ml): −
growth of H. pylori (strain EH 12, RXM 6.25 μg/ml): −
growth of H. pylori (strain EH 12, RXM 12.5 μg/ml): −
growth of H. pylori (strain EH 12, RXM 25 μg/ml): −
growth of H. pylori (strain EH 12, RXM 50 μg/ml): −
growth of H. pylori (strain EH 12, RXM 100 μg/ml): −
growth of H. pylori (strain EH 13, RXM 0.05 μg/ml): +
growth of H. pylori (strain EH 13, RXM 0.1 μg/ml): +
growth of H. pylori (strain EH 13, RXM 0.2 μg/ml): −
growth of H. pylori (strain EH 13, RXM 0.4 μg/ml): −
growth of H. pylori (strain EH 13, RXM 0.8 μg/ml): −
growth of H. pylori (strain EH 13, RXM 1.56 μg/ml): −
growth of H. pylori (strain EH 13, RXM 3.13 μg/ml): −
growth of H. pylori (strain EH 13, RXM 6.25 μg/ml): −
growth of H. pylori (strain EH 13, RXM 12.5 μg/ml): −
growth of H. pylori (strain EH 13, RXM 25 μg/ml): −
growth of H. pylori (strain EH 13, RXM 50 μg/ml): −
growth of H. pylori (strain EH 13, RXM 100 μg/ml): −
growth of H. pylori (strain NCTC11637, RXM 0.05 μg/ml): +
growth of H. pylori (strain NCTC11637, RXM 0.1 μg/ml): +
growth of H. pylori (strain NCTC11637, RXM 0.2 μg/ml): −
growth of H. pylori (strain NCTC11637, RXM 0.4 μg/ml): −
growth of H. pylori (strain NCTC11637, RXM 0.8 μg/ml): −
growth of H. pylori (strain NCTC11637, RXM 1.56 μg/ml): −
growth of H. pylori (strain NCTC11637, RXM 3.13 μg/ml): −
growth of H. pylori (strain NCTC11637, RXM 6.25 μg/ml): −
growth of H. pylori (strain NCTC11637, RXM 12.5 μg/ml): −
growth of H. pylori (strain NCTC11637, RXM 25 μg/ml): −
growth of H. pylori (strain NCTC11637, RXM 50 μg/ml): −
growth of H. pylori (strain NCTC11637, RXM 100 μg/ml): −
growth of H. pylori (strain NCTC11639, RXM 0.05 μg/ml): +
growth of H. pylori (strain NCTC11639, RXM 0.1 μg/ml): +
growth of H. pylori (strain NCTC11639, RXM 0.2 μg/ml): +
growth of H. pylori (strain NCTC11639, RXM 0.4 μg/ml): +
growth of H. pylori (strain NCTC11639, RXM 0.8 μg/ml): −
growth of H. pylori (strain NCTC11639, RXM 1.56 μg/ml): −
growth of H. pylori (strain NCTC11639, RXM 3.13 μg/ml): −
growth of H. pylori (strain NCTC11639, RXM 6.25 μg/ml): −
growth of H. pylori (strain NCTC11639, RXM 12.5 μg/ml): −
growth of H. pylori (strain NCTC11639, RXM 25 μg/ml): −
growth of H. pylori (strain NCTC11639, RXM 50 μg/ml): −
growth of H. pylori (strain NCTC11639, RXM 100 μg/ml): −
